Measurements taken from US20080267936A1, “Treatment of trauma-hemorrhage with short oligopeptides” (Biotempt B.V., priority 2007, published 2008).

Key:
IL-6 [1] = assay: Hemorrhagic shock model, Example 2: IL-6 plasma levels by ELISA; assay type: in vivo, Wistar rats; details: 10 mg/kg single dose; 120, 150 and 180 minutes after onset of shock
Description: (§1) Adult male specific pathogen-free Wistar rats (Harlan CPB, Zeist, The Netherlands), weighing 350 to 400 g were used. Animals were housed under barrier conditions at 25° C. with a twelve-hour light/dark cycle, and were allowed food and water ad libitum. The experimental protocol was approved by the Animal Experiment Committee under the Dutch Experiments on Animals Act and adhered to the rules laid down in this national law that serves the implementation of “Guidelines on the protection of experimental animals” by the Council of Europe (1986), Directive 86/609/EC.
(§2) Synthetic oligopeptides: The oligopeptides (LQGV (SEQ ID NO:2), AQGV (SEQ ID NO:1), and LAGV (SEQ ID NO:3)) were synthesized by Ansynth Service B.V. (Roosendaal, The Netherlands) and dissolved in 0.9% NaCl at a concentration of 10 mg/ml.
Surgical procedures: Rats were food deprived overnight before the experiment, but were allowed water ad libitum. Rats were anesthetized using a mixture of N2O/O2 isoflurane (Pharmachemie B.V., Haarlem, The Netherlands). […]
Experimental procedures: After an acclimatization period of 15 minutes, the rats were randomized into five different groups: 1) sham, 2) hemorrhagic shock (HS), 3) hemorrhagic shock with LQGV (SEQ ID NO:2) treatment (HS/LQGV (SEQ ID NO:2)), 4) hemorrhagic shock with AQGV treatment (HS/AQGV (SEQ ID NO:1)) and 5) hemorrhagic shock with LAGV (SEQ ID NO:3) treatment (HS/LAGV (SEQ ID NO:3). […] Sixty minutes after induction of hemorrhagic shock, rats were resuscitated by autologous blood transfusion over a period of 30 minutes and monitored for another 120 minutes, after which they were sacrificed (FIG. 7, Panel A). […]
Plasma collection and storage: Arterial blood was obtained 15 minutes before and 30, 60, 90, 120, 150 and 180 minutes after onset of hemorrhage (FIG. 7, Panel A). After blood withdrawal, leukocyte numbers were determined using a coulter counter (Beckman Coulter, Mijdrecht, The Netherlands) and corrected for the hematocrit. […]

TNF-α [2] = assay: Hemorrhagic shock model, Example 2: TNF-α mRNA transcripts in tissue by RQ-PCR; assay type: in vivo, Wistar rats; details: 180 minutes after onset of shock, 10 mg/kg, normalized against GAPDH
Description: (§3) Experimental procedures: After an acclimatization period of 15 minutes, the rats were randomized into five different groups: 1) sham, 2) hemorrhagic shock (HS), 3) hemorrhagic shock with LQGV (SEQ ID NO:2) treatment (HS/LQGV (SEQ ID NO:2)), 4) hemorrhagic shock with AQGV treatment (HS/AQGV (SEQ ID NO:1)) and 5) hemorrhagic shock with LAGV (SEQ ID NO:3) treatment (HS/LAGV (SEQ ID NO:3). Hemorrhagic shock was induced by blood withdrawal, reducing the circulating blood volume until a mean arterial pressure (MAP) of […] mmHg was reached. This level of hypotension was maintained for 60 minutes. After 30 minutes, rats received either a single bolus injection of 10 mg/kg LQGV (SEQ ID NO:2), AQGV (SEQ ID NO:1), LAGV (SEQ ID NO:3), or 0.9% NaCl solution. The peptides and dosage were based on previous studies, in which we performed dose-escalation experiments (manuscript in preparation). Sixty minutes after induction of hemorrhagic shock, rats were resuscitated by autologous blood transfusion over a period of 30 minutes and monitored for another 120 minutes, after which they were sacrificed (FIG. 7, Panel A). Sham animals underwent the same surgical procedure as the hemorrhagic shock animals, but without performing hemorrhage and administration of peptides.
(§4) Tissue collection and storage: Liver, lungs, ileum and sigmoid were surgically removed at the end of the experiment, snap-frozen, and stored at −80° C., until assayed.
(§5) Evaluation of mRNA levels by real-time quantitative (RQ)-PCR: RNA was isolated using a QIAGEN kit (QIAGEN, Hilden, Germany), according to the manufacturer's instructions. TNF-α, IL-6 and ICAM-1 transcripts were determined by RQ-PCR using an Applied Biosystems 7700 PCR machine (Foster City, Calif., USA) as described previously.^[27] TNF-α, IL-6 and ICAM-1 expression was quantified by normalization against GAPDH.
(§6) Statistical analysis: Statistical analysis was performed using SPSS version 11 software (SPSS Inc., Chicago, Ill.). Inter-group differences were analyzed with Kruskal-Wallis statistical test.

TNF-α [3] = assay: Hemorrhagic shock model, Example 2: TNF-α plasma levels by ELISA; assay type: in vivo, Wistar rats; details: for increase in plasma TNF-α levels during the experiment: 10 mg/kg single bolus 30 minutes after onset of shock, up to 180 minutes; for TNF-α plasma levels: 10 mg/kg single dose after induction of hemorrhagic shock, vs non-treated HS
Description: as §1, §2
Surgical procedures: Rats were food deprived overnight before the experiment, but were allowed water ad libitum. Rats were anesthetized using a mixture of N2O/O2 isoflurane (Pharmachemie B.V., Haarlem, The Netherlands). Body temperature was continuously maintained at 37.5° C. by placing the rats on a thermo controlled “half-pipe” (UNO, Rotterdam, The Netherlands). Endotracheal intubation was performed, and rats were ventilated at 60 breaths per minute with a mixture of N2O/O2 2% isoflurane. Polyethylene tubes (PE-50, Becton Dickinson; St. Michielsgestel, The Netherlands) were flushed with heparin and placed via the right carotid artery in the aorta and in the right internal jugular vein. The rats received no heparin before or during the experiment.
as §3
Plasma collection and storage: Arterial blood was obtained 15 minutes before and 30, 60, 90, 120, 150 and 180 minutes after onset of hemorrhage (FIG. 7, Panel A). After blood withdrawal, leukocyte numbers were determined using a coulter counter (Beckman Coulter, Mijdrecht, The Netherlands) and corrected for the hematocrit. Approximately 0.3 ml of blood was placed into mini collect tubes (Greiner, Bio-one, Alphen a/d Rijn, The Netherlands), plasma was obtained by centrifugation (1500 r.p.m.; five minutes), immediately frozen, and stored at −80° C., until assayed.
Measurement of cytokines: TNF-α and IL-6 plasma levels were determined by ELISA (R&D Systems Europe Ltd., Abingdon, UK), according to the manufacturer's instructions.
as §6

IL-6 [4] = assay: Hemorrhagic shock model, Example 2: IL-6 mRNA transcripts in tissue by RQ-PCR; assay type: in vivo, Wistar rats; details: 180 minutes after onset of shock, 10 mg/kg, normalized against GAPDH
Description: as §3, §4, §5, §6

ICAM-1 = assay: Hemorrhagic shock model, Example 2: ICAM-1 mRNA transcripts in tissue by RQ-PCR; assay type: in vivo, Wistar rats; details: 180 minutes after onset of shock, 10 mg/kg, normalized against GAPDH
Description: as §3, §4, §5, §6

hemorrhagic shock = assay: Hemorrhagic shock model, Example 1 (bled to MAP 40 mmHg, 0.9% NaCl resuscitation): blood cells, hematocrit, hepatic blood flow; assay type: in vivo, Wistar rats; details: for leukocyte concentration, peptide-treated vs non-treated animals: 5 mg/kg i.v. 30 minutes after induction of shock; for leukocytes, minimum during trauma-hemorrhage: 100% at T0, 5 mg/kg i.v. single bolus 30 minutes after induction of shock; for concentrations of circulating macrophages and granulocytes compared to the non-treated animals: 120 minutes after the onset of hemorrhagic shock, single dose; for blood levels of circulating macrophages and granulocytes / concentrations of circulating macrophages and granulocytes compared with the corresponding experimental group / decrease of circulating macrophages and granulocytes compared with concentrations after trauma-hemorrhage: 180 minutes after onset of trauma-hemorrhage; for arterial hepatic blood flow during the shock period: control group 102.6±23.5%
Description: Adult male specific pathogen-free Wistar rats (Harlan CPB, Zeist, The Netherlands), weighing 350 to 400 g were used after a minimum seven-day acclimation period. The animals were housed under barrier conditions and kept at 25° C. with a twelve-hour light/dark cycle. Rats were allowed free access to water and chow (−). All procedures were performed in accordance with the Principles of Laboratory Animal Care (NIH publication No. 86-23, revised 1985) under a protocol approved by the Committee on Animal Research of the Erasmus University (protocol EUR 365).
The rats were fasted overnight but were allowed free access to water before the experiment. Subsequent to endotracheal intubation, the rats were mechanically ventilated with an isoflurane (−) N2O/O2 mixture at 60 breaths/minute. Body temperature was continuously maintained at 37.5° C. by placing the animals on a thermo controlled “half-pipe” (UNO, The Netherlands). Polyethylene tubes (PE-50, Becton Dickinson; St. Michielsgestel, The Netherlands) were flushed with heparin and placed via the right carotid artery in the aorta and in the right internal jugular vein. The animals received no heparin before or during the experiment.
Mean arterial pressures (MAP) was measured using transducers (Becton Dickinson) that were connected in line to an electronic recorder (Hewlett Packard, 78354-A Germany) for electronically calculated mean pressures and continuous measurement of the animal's blood pressure. Under semi-sterile conditions, a median laparotomy was performed and ultrasonic perivascular flow probes (Transonic Systems Inc, Maastricht, The Netherlands) were placed on the common hepatic artery and the portal vein. A supra pubic catheter was placed to monitor the urine production during and after resuscitation.
After an acclimatization period of 20 minutes, the rats were randomized into the following five groups: • Hemorrhagic shock group were bled within ten minutes to a mean arterial pressure (MAP) of 40 mmHg and maintained at this level for 60 minutes by withdrawing or re-infusing shed blood as needed. Thereafter, the animals were resuscitated with plus minus four times the volume of the withdrawn blood over 30 minutes with a 0.9% NaCl solution. • The hemorrhagic shock group+peptide A (LAGV (SEQ ID NO:3); one-letter amino acid code) underwent the same procedure as the hemorrhagic shock group but received a single bolus injection of 5 mg/kg peptide A intravenously 30 minutes after the induction of shock. • The hemorrhagic shock group+peptide B (AQGV (SEQ ID NO:1)) underwent the same procedure as the hemorrhagic shock group and received a single bolus injection of 5 mg/kg peptide B intravenously, 30 minutes after the induction of shock. • The hemorrhagic shock group+peptide C (LQGV (SEQ ID NO:2)) underwent the same procedure as the hemorrhagic shock group and received a single bolus injection of 5 mg/kg peptide C intravenously, 30 minutes after the induction of shock. • Sham group underwent the same procedure as the hemorrhagic shock group without performing the hemorrhage or administration of any kind of peptides.
The hepatic arterial blood flow (QHA) and hepatic portal venous blood flow (QVP) were measured with transit time ultrasonic perivascular flow probes, connected to an ultrasonic meter (T201; Transonic Systems, Inc., Maastricht, NL). Systemic and hepatic hemodynamics were continuously measured. At regular time points, arterial blood samples were taken. The animals were euthanized by withdrawal of arterial blood via the carotid artery.
Plasma collection and storage: Whole arterial blood was obtained at −15, 30, 60, 90, 120, 150 and 180 minutes after induction of shock via the right carotid artery and collected in duplo. 0.2 ml was placed in tubes (Eppendorf EDTA KE/1.3) to be assayed in the coulter counter (−). 0.5 ml was placed in Minicollect tubes (Bio-one, Greiner) centrifuged for five minutes, immediately frozen, and stored at −80° C., until assayed. […]

[5] = system: pro-inflammatory cytokines; details: 150 mg/kg; cited from earlier work

Row | Substance | IL-6 plasma levels compared to the non-treated hemorrhagic shock group (IL-6 [1]) | TNF-α transcripts in the liver compared to non-treated HS (TNF-α [2]) | increase in plasma TNF-α levels during the experiment (TNF-α [3]) | TNF-α plasma levels (TNF-α [3]) | IL-6 mRNA transcripts in the liver compared to the HS group (IL-6 [4]) | ICAM-1 transcript levels in the liver (ICAM-1) | leukocyte concentration, peptide-treated vs non-treated animals (hemorrhagic shock) | leukocytes, minimum during trauma-hemorrhage (hemorrhagic shock) [%] | concentrations of circulating macrophages and granulocytes compared to the non-treated animals (hemorrhagic shock) | blood levels of circulating macrophages and granulocytes (hemorrhagic shock; 5 mg/kg i.v.) | concentrations of circulating macrophages and granulocytes compared with the corresponding experimental group (hemorrhagic shock; 5 mg/kg i.v.) | decrease of circulating macrophages and granulocytes compared with concentrations after trauma-hemorrhage (hemorrhagic shock; 5 mg/kg i.v.) [%] | blood flow in the hepatic artery during the reperfusion (hemorrhagic shock; reperfusion, 5 mg/kg i.v., shock group 128.9±75.4%, control 83.7±24.2%) [%] | arterial hepatic blood flow during the shock period (hemorrhagic shock; 5 mg/kg i.v.) [%] | mRNA expression of pro-inflammatory cytokines in the liver after hemorrhagic shock [5]
1 | AQGV [synthetic tetrapeptide, alanine replacement variant of LQGV from loop two of the β-subunit of hCG] | significant reduction | reduction | none | significant reduction | significant reduction | did not affect | No significant difference | 47.3±12.4 | decreased | 4,432±0.736 10^9/1 | significantly lower | 29.9 | 78.4±28.3 | 18.1±9.0 | –
2 | Alanine-glutamine dipeptide [AG] | – | – | – | – | – | – | – | – | – | – | – | – | – | – | inhibited
3 | LAGV [synthetic tetrapeptide, alanine replacement variant of LQGV from loop two of the β-subunit of hCG] | significant reduction | reduction | none | significant reduction | reduction | did not affect | No significant difference | 42.0±8.7 | – | – | – | – | – | 21.3±9.1 | –
4 | LQGV [synthetic tetrapeptide, part of the primary structure of loop two of the β-subunit of hCG] | significant reduction | significant reduction | none | significant reduction | significant reduction | did not affect | No significant difference | 38.2±7.4 | decreased | 3,846±0.636 10^9/1 | significantly lower | 39.2 | – | 21.2±8.6 | –
